Measured values: the supplement of paper PMC10883282

Columns and labels:
Assay in all cases: relative viability vs DMSO control (72 h) (fraction); higher = more viable cells
SW684 = tested on: SW684
In short: (§1)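 ATPLite readings, expressed as percent growth and averaged over up to triplicate wells, provided relative viability. Before reading, sarcoma cell lines seeded in 384-well plates to reach 80–90% confluence received 2.5 µl of serially diluted compound after 24 h, from source plates of 10 mM to 0.0002 mM. Plates were held 72 h at 37 °C, 5% CO2, with 0.1% DMSO as vehicle and a 5 µM positive control. The data were rescaled to 1 for full and 0 for none.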

SK-LMS-1 = tested on: SK-LMS-1
In short: as §1

SW1353 = tested on: SW1353
In short: as §1

HT1080 = tested on: HT1080
In short: as §1

KHOS-NP = tested on: KHOS-NP
In short: as §1

RD-ES = tested on: RD-ES
In short: as §1

KHOS-240S = tested on: KHOS-240S
In short: as §1

RD = tested on: RD
In short: as §1

HS729 = tested on: HS729
In short: as §1

SW872 = tested on: SW872
In short: as §1

G401 = tested on: G401
In short: as §1

SYO-1 = tested on: SYO-1
In short: as §1

CC[C@@H]1C(=O)N(C)c2cnc(Nc3ccc(C(=O)N[C@H]4CC[C@H](N5CCN(CC6CC6)CC5)CC4)cc3OC)nc2N1C(C)C [Volasertib]
Settings	relative viability
G401, 0.00017 µM	1.01
G401, 0.00051 µM	1.03
G401, 0.00152 µM	1.05
G401, 0.00457 µM	1.03
G401, 0.01372 µM	1.02
G401, 0.04115 µM	0.845
G401, 0.1235 µM	0.5129
G401, 0.3704 µM	0.427
G401, 1.111 µM	0.338
G401, 3.333 µM	0.243
G401, 10 µM	0.00683
HS729, 0.00017 µM	0.954
HS729, 0.00051 µM	0.995
HS729, 0.00152 µM	0.981
HS729, 0.00457 µM	0.954
HS729, 0.01372 µM	0.87
HS729, 0.04115 µM	0.685
HS729, 0.1235 µM	0.622
HS729, 0.3704 µM	0.657
HS729, 1.111 µM	0.641
HS729, 3.333 µM	0.612
HS729, 10 µM	0.0591
HT1080, 0.00017 µM	1.057
HT1080, 0.00051 µM	1.06
HT1080, 0.00152 µM	1.06
HT1080, 0.00457 µM	1.04
HT1080, 0.01372 µM	1.03
HT1080, 0.04115 µM	0.9978
HT1080, 0.1235 µM	0.239
HT1080, 0.3704 µM	0.13
HT1080, 1.111 µM	0.139
HT1080, 3.333 µM	0.0909
HT1080, 10 µM	0.00783
KHOS-240S, 0.00017 µM	1.07
KHOS-240S, 0.00051 µM	1.054
KHOS-240S, 0.00152 µM	1.06
KHOS-240S, 0.00457 µM	1.06
KHOS-240S, 0.01372 µM	0.979
KHOS-240S, 0.04115 µM	0.319
KHOS-240S, 0.1235 µM	0.221
KHOS-240S, 0.3704 µM	0.189
KHOS-240S, 1.111 µM	0.171
KHOS-240S, 3.333 µM	0.122
KHOS-240S, 10 µM	0.0197
KHOS-NP, 0.00017 µM	1.07
KHOS-NP, 0.00051 µM	1.06
KHOS-NP, 0.00152 µM	1.07
KHOS-NP, 0.00457 µM	1.08
KHOS-NP, 0.01372 µM	1.09
KHOS-NP, 0.04115 µM	1.01
KHOS-NP, 0.1235 µM	0.471
KHOS-NP, 0.3704 µM	0.276
KHOS-NP, 1.111 µM	0.222
KHOS-NP, 3.333 µM	0.184
KHOS-NP, 10 µM	0.0214
RD, 0.00017 µM	1.132
RD, 0.00051 µM	1.12
RD, 0.00152 µM	1.129
RD, 0.00457 µM	1.14
RD, 0.01372 µM	1.07
RD, 0.04115 µM	0.363
RD, 0.1235 µM	0.212
RD, 0.3704 µM	0.18
RD, 1.111 µM	0.169
RD, 3.333 µM	0.119
RD, 10 µM	0.0206
RD-ES, 0.00017 µM	1.02
RD-ES, 0.00051 µM	1
RD-ES, 0.00152 µM	1.01
RD-ES, 0.00457 µM	1.028
RD-ES, 0.01372 µM	0.987
RD-ES, 0.04115 µM	0.447
RD-ES, 0.1235 µM	0.0248
RD-ES, 0.3704 µM	0.0217
RD-ES, 1.111 µM	0.0279
RD-ES, 3.333 µM	0.0346
RD-ES, 10 µM	0.0126
SK-LMS-1, 0.00017 µM	1.04
SK-LMS-1, 0.00051 µM	1.01
SK-LMS-1, 0.00152 µM	1.05
SK-LMS-1, 0.00457 µM	1.04
SK-LMS-1, 0.01372 µM	1
SK-LMS-1, 0.04115 µM	0.551
SK-LMS-1, 0.1235 µM	0.492
SK-LMS-1, 0.3704 µM	0.453
SK-LMS-1, 1.111 µM	0.459
SK-LMS-1, 3.333 µM	0.3806
SK-LMS-1, 10 µM	0.0152
SW684, 0.00017 µM	1.19
SW684, 0.00051 µM	1.21
SW684, 0.00152 µM	1.22
SW684, 0.00457 µM	1.17
SW684, 0.01372 µM	1.13
SW684, 0.04115 µM	0.694
SW684, 0.1235 µM	0.675
SW684, 0.3704 µM	0.731
SW684, 1.111 µM	0.675
SW684, 3.333 µM	0.6025
SW684, 10 µM	0.0835
SW872, 0.00017 µM	1.06
SW872, 0.00051 µM	1.03
SW872, 0.00152 µM	1.05
SW872, 0.00457 µM	1.08
SW872, 0.01372 µM	1.06
SW872, 0.04115 µM	0.623
SW872, 0.1235 µM	0.437
SW872, 0.3704 µM	0.269
SW872, 1.111 µM	0.176
SW872, 3.333 µM	0.0454
SW872, 10 µM	0.00513
SW1353, 0.00017 µM	0.972
SW1353, 0.00051 µM	0.954
SW1353, 0.00152 µM	0.945
SW1353, 0.00457 µM	0.949
SW1353, 0.01372 µM	0.958
SW1353, 0.04115 µM	0.902
SW1353, 0.1235 µM	0.635
SW1353, 0.3704 µM	0.52
SW1353, 1.111 µM	0.4419
SW1353, 3.333 µM	0.3712
SW1353, 10 µM	0.063
SYO-1, 0.00017 µM	0.966
SYO-1, 0.00051 µM	0.974
SYO-1, 0.00152 µM	0.958
SYO-1, 0.00457 µM	0.912
SYO-1, 0.01372 µM	0.549
SYO-1, 0.04115 µM	0.352
SYO-1, 0.1235 µM	0.311
SYO-1, 0.3704 µM	0.131
SYO-1, 1.111 µM	0.00893
SYO-1, 3.333 µM	-0.0446
SYO-1, 10 µM	-0.0423
